System: HSV-1
Experiment: HSV-1-GFP infection of human PILR-transfected CHO-K1 cells with acyclovir as control (Example 3), GFP expression 18 hours later
Assay type: cell-based
Settings: acyclovir 100 μM or 500 μM, or mAb 10 μg/ml, added 30 minutes before virus; FIG. 10
Experimental: HSV-1-GFP of 1.5×10^6 PFU was added to 5×10^4 CHO-K1 cells to which human PILR had been transfected, and expression of GFP was analyzed 18 hours later.
30 minutes before adding the virus, 100 μM or 500 μM of acyclovir, or 10 μg/ml of anti-human PILR mAb (M4) was added, and a ratio of infection with the virus was shown in FIG. 10 with a ratio of infection of cells to which nothing had been added (“control” in FIG. 10) being 100%.

Nc1nc2c(ncn2COCCO)c(=O)[nH]1 [acyclovir]
inhibition of infection with HSV (ratio of infection, control = 100%): did not inhibit infection
